Common to all, as to type: biochemical
In assay [1] the target is T1, Kit (Homo sapiens, UniProt P10721).
T1 construct: P1332.N6 BI PTP KIT M552-K948-X COD; His6 (N); made in house; host or cells: E. coli (PTP1B co-expressed)
Put plainly: AlphaScreen kinase assay, Kit. As to conditions: read-out: IC50, activity toward kinase Kit.

The target of assay [2] is T2, Flt1 (Homo sapiens, UniProt P17948).
T2 construct: P1826.pETN6 BI-PTP FLT1 M799-D1165-X WT; His6 (N); made in house; host or cells: E. coli (PTP1B co-expressed)
T2 sequence (P17948 with tags, fused parts or gaps): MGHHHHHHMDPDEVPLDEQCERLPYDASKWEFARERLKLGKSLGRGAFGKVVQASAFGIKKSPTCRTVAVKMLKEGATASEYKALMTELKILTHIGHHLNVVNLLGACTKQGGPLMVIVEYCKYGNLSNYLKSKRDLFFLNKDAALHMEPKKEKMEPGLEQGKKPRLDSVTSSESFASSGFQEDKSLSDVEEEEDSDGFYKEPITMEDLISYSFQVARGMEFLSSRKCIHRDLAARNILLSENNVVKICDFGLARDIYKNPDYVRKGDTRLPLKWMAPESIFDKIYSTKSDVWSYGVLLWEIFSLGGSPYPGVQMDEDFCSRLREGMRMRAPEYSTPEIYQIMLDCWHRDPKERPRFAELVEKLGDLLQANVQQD
Put plainly: AlphaScreen kinase assay, Flt1. The settings on record: read-out: IC50, activity toward kinase Flt1. (Bead proximity is the source of the signal in Alpha formats.)

The target of assay [3] is T3, FGFR1 (Homo sapiens, UniProt P11362, C488A/C584S).
T3 construct: P1351.pET N6 BI-PTP FGFR A458-E765-X C488A, C584S; made in house; host or cells: E. coli (PTP1B co-expressed)
As to the kind of experiment: AlphaScreen kinase assay, FGFR1. The settings on record: read-out: IC50, activity toward kinase FGFR.

Assay [4] has as its target T4, Fms (Homo sapiens, UniProt P07333).
T4 construct: purchased Upstate Biotechnology
As to the kind of experiment: AlphaScreen kinase assay, Fms. As to conditions: read-out: IC50, activity toward kinase Fms.

Assay [5] addresses T5, B-Raf V600E (Homo sapiens, UniProt P15056, V600E).
T5 construct: P4254. pFastBacBD-CDC37 BRAF D437-K722-X, V600E; His6 with pFastBac HT leader (TEV site) (N); made in house; host or cells: Sf9 (baculovirus; chaperone CDC37 co-expressed)
Put plainly: AlphaScreen kinase assay, B-Raf V600E. The settings on record: read-out: IC50, activity toward kinase B-Raf V600E.

Some results are limits rather than exact numbers.

T1 sequence (P10721 with tags, fused parts or gaps): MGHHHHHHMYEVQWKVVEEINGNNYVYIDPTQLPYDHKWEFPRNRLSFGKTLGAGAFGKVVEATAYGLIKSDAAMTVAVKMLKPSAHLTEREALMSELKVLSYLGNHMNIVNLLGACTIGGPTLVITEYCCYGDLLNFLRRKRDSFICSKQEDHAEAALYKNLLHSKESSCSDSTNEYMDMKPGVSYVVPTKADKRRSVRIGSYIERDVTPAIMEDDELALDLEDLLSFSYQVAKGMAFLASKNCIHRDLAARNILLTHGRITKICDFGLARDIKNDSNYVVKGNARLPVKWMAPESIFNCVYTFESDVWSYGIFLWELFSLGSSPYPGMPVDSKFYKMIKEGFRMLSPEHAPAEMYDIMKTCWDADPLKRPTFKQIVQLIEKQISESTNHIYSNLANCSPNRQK
T4 sequence (P07333 20-972): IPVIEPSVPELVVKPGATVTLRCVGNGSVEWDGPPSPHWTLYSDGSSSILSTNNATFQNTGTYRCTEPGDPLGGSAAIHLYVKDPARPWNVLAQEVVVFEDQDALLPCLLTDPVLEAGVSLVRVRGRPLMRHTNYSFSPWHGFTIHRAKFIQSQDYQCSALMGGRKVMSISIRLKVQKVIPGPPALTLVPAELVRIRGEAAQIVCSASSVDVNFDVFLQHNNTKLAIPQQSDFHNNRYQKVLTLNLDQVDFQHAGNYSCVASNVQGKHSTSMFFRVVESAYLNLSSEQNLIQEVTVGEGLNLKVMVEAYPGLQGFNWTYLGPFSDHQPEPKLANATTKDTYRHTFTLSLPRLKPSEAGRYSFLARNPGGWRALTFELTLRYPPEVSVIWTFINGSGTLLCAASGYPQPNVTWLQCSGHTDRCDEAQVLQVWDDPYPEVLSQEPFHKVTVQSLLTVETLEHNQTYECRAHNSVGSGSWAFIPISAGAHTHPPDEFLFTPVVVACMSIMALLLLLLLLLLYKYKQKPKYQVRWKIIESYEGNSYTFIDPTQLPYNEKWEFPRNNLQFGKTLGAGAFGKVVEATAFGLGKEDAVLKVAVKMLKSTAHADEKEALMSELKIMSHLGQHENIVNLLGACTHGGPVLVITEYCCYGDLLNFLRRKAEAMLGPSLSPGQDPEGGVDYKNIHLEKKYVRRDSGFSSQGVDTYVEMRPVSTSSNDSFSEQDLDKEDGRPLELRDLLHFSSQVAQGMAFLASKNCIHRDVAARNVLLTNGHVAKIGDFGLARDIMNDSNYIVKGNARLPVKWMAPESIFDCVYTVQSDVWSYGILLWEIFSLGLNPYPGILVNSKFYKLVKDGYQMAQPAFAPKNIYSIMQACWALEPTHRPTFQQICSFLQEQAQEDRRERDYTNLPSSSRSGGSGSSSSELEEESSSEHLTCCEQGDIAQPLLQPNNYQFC
T3 sequence (P11362 458-765 C488A/C584S): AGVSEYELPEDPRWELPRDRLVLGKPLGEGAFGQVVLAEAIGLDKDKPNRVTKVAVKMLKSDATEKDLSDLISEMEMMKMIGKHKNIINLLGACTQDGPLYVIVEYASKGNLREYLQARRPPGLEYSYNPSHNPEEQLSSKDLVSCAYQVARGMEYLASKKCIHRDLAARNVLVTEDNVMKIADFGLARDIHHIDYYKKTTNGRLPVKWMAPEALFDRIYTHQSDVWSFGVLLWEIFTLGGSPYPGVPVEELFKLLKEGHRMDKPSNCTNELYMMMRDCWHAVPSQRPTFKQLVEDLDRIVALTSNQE
T5 sequence (P15056 with tags, fused parts or gaps V600E): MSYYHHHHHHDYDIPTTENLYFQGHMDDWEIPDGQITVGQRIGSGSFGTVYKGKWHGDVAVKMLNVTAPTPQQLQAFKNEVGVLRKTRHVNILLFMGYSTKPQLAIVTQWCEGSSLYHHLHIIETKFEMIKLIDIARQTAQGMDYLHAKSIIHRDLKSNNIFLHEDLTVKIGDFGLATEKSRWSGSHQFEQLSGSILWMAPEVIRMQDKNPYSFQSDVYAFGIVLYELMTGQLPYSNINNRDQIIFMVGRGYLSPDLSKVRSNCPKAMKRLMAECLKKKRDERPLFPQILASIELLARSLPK

In the case of `CC(=O)Nc1cccc(-c2cnc3[nH]cc(C(=O)c4cccc(OC(F)(F)F)c4)c3c2)c1` [Compound P-1422, N-{3-[3-(3-Trifluoromethoxy-benzoyl)-1H -pyrrolo[2,3-b]pyridin-5-yl]-phenyl}-acetamide], the IC50 in assay [1] and in assay [2] was not above 10 µM each time.

`COC(=O)/C=C/c1cccc(-c2cnc3[nH]cc(C(=O)c4cccc(NS(C)(=O)=O)c4)c3c2)c1` [Compound P-1404]: the 50% inhibitory concentration (IC50) in assay [1], in assay [3], in assay [2] and in assay [4] was not above 10 µM throughout.

As for `O=C(NCCN1CCOCC1)Nc1ccc(F)c(Cc2c[nH]c3ncc(Cl)cc23)c1F` [Compound P-1594, 1-[3-(5-Chloro-1H-pyrrolo[2,3-b]pyridin-3-ylmethyl)-2,4-difluoro-phenyl]-3-(2-morpholin-4-yl-ethyl)-urea], the IC50 in assay [5], in assay [2] and in assay [4] was not above 10 µM in each case.

For the compound `Oc1ccc(Nc2c[nH]c3ncccc23)c(F)c1` [Compound P-1499, 3-Fluoro-4-(1H-pyrrolo[2,3-b]pyridin-3-ylamino)-phenol], the IC50 in assay [1], in assay [2] and in assay [4] was not above 10 µM throughout.

As to `Cc1nc(NCc2ccc(C(F)(F)F)cc2)ccc1Cc1c[nH]c2ncccc12` [Compound P-1112], the IC50 in assay [5], in assay [2] and in assay [4] was not above 10 µM throughout.

As for `CS(=O)(=O)Nc1cccc(-c2cnc3[nH]cc(C(=O)c4cccc(C(F)(F)F)c4)c3c2)c1` [Compound P-1425, N-{3-[3-(3-Trifluoromethyl-benzoyl)-1H-pyrrolo[2,3-b]pyridin-5-yl]-phenyl}-methanesulfonamide], the IC50 in assay [1], in assay [5], in assay [2] and in assay [4] was not above 10 µM throughout.

With `c1ccc(Cc2cccc(Nc3c[nH]c4ncccc34)c2)cc1` [Compound P-1497, (3-Benzyl-phenyl)-(1H-pyrrolo[2,3-b]pyridin-3-yl)-amine], the IC50 in assay [1], in assay [2] and in assay [4] was not above 10 µM throughout.

Turning to `COc1cnc2[nH]cc(Cc3c(F)ccc(NC(=O)NC4CCCC4)c3F)c2c1` [Compound P-1572, 1-Cyclopentyl-3-[2,4-difluoro-3-(5-methoxy-1H-pyrrolo[2,3-b]pyridin-3-ylmethyl)-phenyl]-urea], the IC50 in assay [5], in assay [2] and in assay [4] was not above 10 µM each time.

Regarding `CS(=O)(=O)Nc1ccc(F)c(Cc2c[nH]c3ncccc23)c1F` [Compound P-1603, N-[2,4-Difluoro-3-(1H-pyrrolo[2,3-b]pyridin-3-ylmethyl)-phenyl]-methanesulfonamide], the IC50 in assay [3] and in assay [2] was not above 10 µM in each case.

Take `O=C(NCC(F)(F)F)Nc1ccc(F)c(Cc2c[nH]c3ncc(Cl)cc23)c1F` [Compound P-1601, 1-[3-(5-Chloro-1H-pyrrolo[2,3-b]pyridin-3-ylmethyl)-2,4-difluoro-phenyl]-3-(2,2,2-trifluoro-ethyl)-urea]: the IC50 in assay [5] and in assay [2] was not above 10 µM in each case.

Turning to `O=C(c1c(F)ccc(NC(=O)N2CCOCC2)c1F)c1c[nH]c2ncc(Cl)cc12` [Compound P-1606, Morpholine-4-carboxylic acid [3-(5-chloro-1H-pyrrolo[2,3-b]pyridine-3-carbonyl)-2,4-difluoro-phenyl]-amide], the IC50 in assay [5], in assay [2] and in assay [4] was not above 10 µM throughout.

For the compound `CN(C)c1ccc(Cc2c[nH]c3ncccc23)cc1` [Compound P-0150], the IC50 in assay [3] and in assay [2] was not above 10 µM each time.

`Cc1ccccc1S(=O)(=O)NCc1c[nH]c2ncccc12` [Compound P-0768]: the IC50 in assay [2] was not above 10 µM.

In the case of `CS(=O)(=O)c1cccc(-c2cnc3[nH]cc(Cc4c(F)ccc(NC(=O)NC5CCCC5)c4F)c3c2)c1` [Compound P-1615, 1-Cyclopentyl-3-{2,4-difluoro-3-[5-(3-methanesulfonyl-phenyl)-1H-pyrrolo[2,3-b]pyridin-3-ylmethyl]-phenyl}-urea], the IC50 in assay [2] and in assay [4] was not above 10 µM throughout.

Turning to `O=S(=O)(NCc1c[nH]c2ncccc12)c1cc(Cl)sc1Cl` [Compound P-0603], the half-inhibitory concentration (IC50) in assay [5] and in assay [2] was not above 10 µM each time.

`NC(=O)c1cccc(-c2cnc3[nH]ccc3c2)c1` [Compound P-1622, 3-(1H-Pyrrolo[2,3-b]pyridin-5-yl)-benzamide]: the IC50 in assay [3] and in assay [2] was not above 10 µM throughout.

Regarding `c1ccc(C(CNCc2c[nH]c3ncccc23)c2ccccc2)cc1` [Compound P-0514], the IC50 in assay [2] is not above 10 µM.

Consider `CCCCN(C)C(=O)Nc1ccc(F)c(Cc2c[nH]c3ncc(Cl)cc23)c1F` [Compound P-1625, 1-Butyl-3-[3-(5-chloro-1H-pyrrolo[2,3-b]pyridin-3-ylmethyl)-2,4-difluoro-phenyl]-1-methyl-urea], for which the IC50 in assay [3], in assay [2] and in assay [4] was not above 10 µM throughout.

On to `CS(=O)(=O)Nc1cccc(-c2cnc3[nH]cc(C(=O)c4cc(F)cc(C(F)(F)F)c4)c3c2)c1` [Compound P-1427, N-{3-[3-(3-Fluoro-5-trifluoromethyl-benzoyl)-1H-pyrrolo[2,3-b]pyridin-5-yl]-phenyl}-methanesulfonamide], for which the half-inhibitory concentration (IC50) in assay [1], in assay [2] and in assay [4] was not above 10 µM each time.

For the compound `O=C(c1c[nH]c2ccccc12)c1c[nH]c2ncc(Br)cc12` [Compound P-1624], the IC50 in assay [3] and in assay [2] was not above 10 µM each time.

For `CS(=O)(=O)c1cccc(-c2cnc3[nH]cc(Cc4c(F)ccc(N)c4F)c3c2)c1` [Compound P-1614], the concentration for half-maximal inhibition (IC50) in assay [3], in assay [5] and in assay [2] was not above 10 µM each time.

On to `CCCCNC(=O)Nc1ccc(F)c(Cc2c[nH]c3ncc(Cl)cc23)c1F` [Compound P-1587, 1-Butyl-3-[3-(5-chloro-1H-pyrrolo[2,3-b]pyridin-3-ylmethyl)-2,4-difluoro-phenyl]-urea], for which the IC50 in assay [2] and in assay [4] was not above 10 µM throughout.

For `c1ccc(CNc2ccc(Cc3c[nH]c4ncccc34)cn2)cc1` [Compound P-0733], the IC50 in assay [2] and in assay [4] was not above 10 µM each time.

As to `CCCCNC(=O)Nc1ccc(F)c(Cc2c[nH]c3ncc(OC)cc23)c1F` [Compound P-1571, 1-Butyl-3-[2,4-difluoro-3-(5-methoxy-1H-pyrrolo[2,3-b]pyridin-3-ylmethyl)-phenyl]-urea], the concentration for half-maximal inhibition (IC50) in assay [2] and in assay [4] was not above 10 µM each time.

On to `O=C(c1ccc(Cl)cc1Cl)c1c[nH]c2ncc(-c3ccccc3)cc12` [Compound P-1557], for which the IC50 in assay [1] and in assay [2] was not above 10 µM in each case.

For the compound `O=C(c1ccc(Nc2ccccc2)nc1)c1c[nH]c2ncccc12` [Compound P-1160], the IC50 in assay [1], in assay [5] and in assay [2] was not above 10 µM in each case.

As for `CCOc1ccccc1C(O)c1c[nH]c2ncc(-c3cccnc3)cc12` (centres unmarked) [Compound P-1533], the IC50 in assay [2] was not above 10 µM.

Turning to `O=C(Nc1ccc(F)c(Cc2c[nH]c3ncc(Cl)cc23)c1F)N1CCOCC1` [Compound P-1595, Morpholine-4-carboxylic acid [3-(5-chloro-1H-pyrrolo[2,3-b]pyridin-3-ylmethyl)-2,4-difluoro-phenyl]-amide], the IC50 in assay [3], in assay [2] and in assay [4] was not above 10 µM throughout.

As to `O=C(c1ccc(NCc2ccc(F)cc2)nc1)c1c[nH]c2ncccc12` [Compound P-0491], the IC50 in assay [2] and in assay [4] was not above 10 µM in each case.

For the compound `O=C(c1ccc(NCc2ccc(C(F)(F)F)cc2)nc1)c1c[nH]c2ncccc12` [Compound P-0461], the IC50 in assay [2] and in assay [4] was not above 10 µM each time.

With `Clc1ccc(Nc2c[nH]c3ncccc23)cc1` [Compound P-1491, (4-Chloro-phenyl)-(1H-pyrrolo[2,3-b]pyridin-3-yl)-amine], the 50% inhibitory concentration (IC50) in assay [2] and in assay [4] was not above 10 µM each time.

For `CC(=O)Nc1cccc(-c2cnc3[nH]cc(C(=O)c4cccc(OC(F)F)c4)c3c2)c1` [Compound P-1424, N-{3-[3-(3-Difluoromethoxy-benzoyl)-1H-pyrrolo[2,3-b]pyridin-5-yl]-phenyl}-acetamide], the half-inhibitory concentration (IC50) in assay [1], in assay [3] and in assay [2] was not above 10 µM in each case.

What is called IC50 is the concentration needed to halve the response being measured.

Values taken from patent US8415469B2, “Compounds and methods for kinase modulation, and indications therefor” (Plexxikon Inc., priority 2005, dated 2013).
